In patent US20100210722A1, “COMPOSITION FOR PREVENTING OR TREATING LIPID METABOLIC DISORDERS COMPRISING FUCOXANTHIN OR MARINE PLANT EXTRACT CONTAINING SAME” (AMICOGEN, INC., priority 2007, published 2010):
Marks after values point to notes of the source that are not given here.

Experiments:
Assay type in all cases: in vivo, C57BL/6N/CriBgi mice
[1] = tested on: fatty acid synthase (FAS); assay: FAS activity in adipose tissue; settings: high fat diet, 6 weeks
Description: (§1) Test diets were as follows: “normal diet group”=AIN-76 semisynthetic diet of Teklad (Madison, Wl, USA); “high fat diet group”=normal diet+10% of corn oil and 10% of lard; “test group I”=high fat diet+fucoxanthin extract of Example 1 (fucoxanthin content=0.05%); “test group II”=high fat diet+fucoxanthin extract of Example 1 (fucoxanthin content=0.2%); “test group III”=high fat diet+fucoxanthin extract of Example 2 (fucoxanthin content=0.05%); “test group IV”=high fat diet+fucoxanthin extract of Example 2 (fucoxanthin content=0.2%). The 6 diets (normal diet, high fat diet, and test I, II, III and IV) were given to the animals for 6 weeks. Diet intake was recorded every day, and body weight was measured once a week.
(§2) The supernatant was centrifuged again at 12,000×g for 15 minutes. Then, the supernatant was subjected to high-speed centrifuging (Beckman, Optima TLX-120, USA) at 100,000×g for 1 hour. Then, change of the activity of enzymes involved in the synthesis of fatty acid—fatty acid synthase (FAS), glucose-6-phosphate dehydrogenase (G6PD) and malic enzyme (ME)—was measured.
Specifically, FAS activity was determined as follows. […] After 10 minutes of reaction at 30° C., decrease of absorbance was measured. FAS activity was calculated as nmol of NADPH oxidized per 1 mg of protein in cell per minute.

[2] = tested on: glucose-6-phosphate dehydrogenase (G6PD); assay: G6PD activity in adipose tissue; settings: high fat diet, 6 weeks
Description: as §1, §2
(§3) The G6PD enzyme is an enzyme that supplied reducing energy required for the synthesis of fatty acid. […] G6PD activity was measured at 340 nm by the degree of reduction of NADP^+ to NADPH by G6PD. […] G6PD activity was calculated as nmol of NADPH produced per 1 mg of protein in cell per minute.

[3] = tested on: glucose-6-phosphate dehydrogenase (G6PD); assay: G6PD activity in liver tissue; settings: high fat diet, 6 weeks
Description: as §1, §2, §3

[4] = tested on: G6PD mRNA; assay: Expression of mRNA for G6PD in adipose tissue (real-time PCR); settings: normal diet = 1.00, GAPDH internal marker
Description: as §1
5 mL of Trizol was added to 0.5 g of white adipose tissue. After pulverizing in liquid nitrogen using a mortar, the tissue was added to 1 mL of chloroform. […] The isolated RNA was diluted and absorbance was measured at 260 nm using a UV spectrometer. […]
Thus prepared cDNA was […] 10-fold, and primers for analyzing the expression of the respective genes (CPT, β-oxidation, FAS, ME and G6PD) were obtained from Genotech (Daejeon, Korea). […] Fluorescence signals were monitored for each cycle and threshold cycle (Cr) was analyzed for quantitative analysis of mRNA for the test groups (Applied Biosystems, SDS7000) (Livak, 2001). […]

[5] = tested on: peroxisome proliferator-activated receptor α (PPARα) mRNA; assay: Expression of mRNA for PPARα in liver tissue (real-time PCR)
[6] = fucoxanthin content 0.05% (Test I/III)
[7] = fucoxanthin content 0.2% (Test II/IV)

In the case of `CC(=O)O[C@H]1CC(C)(C)C(=C=C/C(C)=C/C=C/C(C)=C/C=C/C=C(C)/C=C/C=C(\C)C(=O)C[C@@]23O[C@]2(C)C[C@@H](O)CC3(C)C)[C@](C)(O)C1` [highly pure fucoxanthin, Fucoxanthin], the FAS activity [1, 6] is reported as 90.55 ± 9.66^a mmol/min/mg protein, the FAS activity [1, 7] is reported as 74.26 ± 6.38^a mmol/min/mg protein and the G6PD activity [2, 6] is reported as 1.25 ± 0.27^a mmol/min/mg protein. For the same molecule, the G6PD activity [2, 7] was 1.27 ± 0.15^a mmol/min/mg protein, the G6PD activity [3, 6] was 51.53 ± 4.31^a mmol/min/mg protein and the G6PD activity [3, 7] was 50.51 ± 3.74^a mmol/min/mg protein. The “Expression of mRNA, G6PD” value [4, 6] was 1.10 ± 0.15^abc, the “Expression of mRNA, G6PD” value [4, 7] was 0.67 ± 0.04^a and the “Expression of mRNA, PPARα” value ([5]; normal diet = 1.00, fucoxanthin content 0.05% (Test I/III)) was 1.22 ± 0.08^ab. The “Expression of mRNA, PPARα” value ([5]; normal diet = 1.00, fucoxanthin content 0.2% (Test II/IV)) was 1.57 ± 0.36^b.
